Patent publication US12606548B2, “Fungicidal oxadiazoles” (FMC CORPORATION, priority 2019, dated 2026)
Marks after values point to notes of the source that are not given here.

Assays:
Format in all cases: in vivo
Phakopsora pachyrhizi = experiment: Test A: test suspension sprayed on soybean seedlings, inoculated next day with Phakopsora pachyrhizi (Asian soybean rust), visual disease rating; details: for Test A rating (% disease control): relative to the controls
Text: General protocol for preparing test suspensions for Tests A-C: the test compounds were first dissolved in acetone in an amount equal to 3% of the final volume and then suspended at the desired concentration (in ppm) in acetone and purified water (50/50 mix by volume) containing 250 ppm of the surfactant PEG400 (polyhydric alcohol esters). The resulting test suspensions were then used in Tests A-C. The test suspension was sprayed to the point of run-off on soybean seedlings. The following day the seedlings were inoculated with a spore suspension of Phakopsora pachyrhizi (the causal agent of Asian soybean rust) and incubated in a saturated atmosphere at 22° C., for 24 h and then moved to a growth chamber at 22° C., for 8 days, after which time visual disease ratings were made. […] A dash (-) indicates the compound was not tested. The test suspensions were sprayed at the concentration listed in the column “Rate in ppm”, unless otherwise indicated.

Zymoseptoria tritici = experiment: Test B: test suspension sprayed on wheat seedlings, inoculated next day with Zymoseptoria tritici (wheat leaf blotch), visual disease rating; details: for Test B rating (% disease control): relative to the controls
Text: General protocol for preparing test suspensions for Tests A-C: the test compounds were first dissolved in acetone in an amount equal to 3% of the final volume and then suspended at the desired concentration (in ppm) in acetone and purified water (50/50 mix by volume) containing 250 ppm of the surfactant PEG400 (polyhydric alcohol esters). The resulting test suspensions were then used in Tests A-C.
The test suspension was sprayed to the point of run-off on wheat seedlings. The following day the seedlings were inoculated with a spore suspension of Zymoseptoria tritici (the causal agent of wheat leaf blotch) and incubated in a saturated atmosphere at 24° C., for 48 h, and then moved to a growth chamber at 20° C., for 17 days, after which time visual disease ratings were made.
Results for Tests A-C are given in Table A. In the Table, a rating of 100 indicates 100% disease control and a rating of 0 indicates no disease control (relative to the controls). A dash (-) indicates the compound was not tested. The test suspensions were sprayed at the concentration listed in the column “Rate in ppm”, unless otherwise indicated. An asterisk “*” next to the rating indicates a 250 ppm test suspension was used, a double asterisk “**” next to the rating indicates a 100 ppm test suspension was used, and a triple asterisk “***” next to the rating indicates a 50 ppm test suspension was used.

[1] = system: Puccinia recondita f. sp. tritici; experiment: Test C: test suspension sprayed on wheat seedlings, inoculated next day with Puccinia recondita f. sp. tritici (wheat leaf rust), visual disease rating; details: for Test C rating (% disease control): relative to the controls
Text: General protocol for preparing test suspensions for Tests A-C: the test compounds were first dissolved in acetone in an amount equal to 3% of the final volume and then suspended at the desired concentration (in ppm) in acetone and purified water (50/50 mix by volume) containing 250 ppm of the surfactant PEG400 (polyhydric alcohol esters). The resulting test suspensions were then used in Tests A-C. The test suspension was sprayed to the point of run-off on wheat seedlings. The following day the seedlings were inoculated with a spore suspension of Puccinia recondita f. sp. tritici; (the causal agent of wheat leaf rust) and incubated in a saturated atmosphere at 20° C., for 24 h, and then moved to a growth chamber at 20° C., for 6 days, after which time visual disease ratings were made. […] A dash (-) indicates the compound was not tested. The test suspensions were sprayed at the concentration listed in the column “Rate in ppm”, unless otherwise indicated.

Molecule	Test B disease control rating (Zymoseptoria tritici; 250 ppm test suspension)	Test A rating (% disease control) (Phakopsora pachyrhizi; Rate 10 ppm test suspension) [%]	Test B rating (% disease control) (Zymoseptoria tritici; 250 ppm test suspension)	Test C rating (% disease control) ([1]; Rate 10 ppm test suspension) [%]	further results
1,3-dihydro-1-methyl-3-[[4-[5-(trifluoromethyl)-1,2,4-oxadiazol-3-yl]phenyl]methyl]-2H-benzimidazol-2-one [Compound 159]	0%	–	–	–	Test A disease control rating (Phakopsora pachyrhizi; 250 ppm test suspension): 100%; Test C disease control rating ([1]; 250 ppm test suspension): 100%
1-[[4-[5-(trifluoromethyl)-1,2,4-oxadiazol-3-yl]phenyl]methyl]-2(1H)-quinoxalinone [Compound 158]	0%	–	–	–	Test A disease control rating (Phakopsora pachyrhizi; 250 ppm test suspension): 100%; Test C disease control rating ([1]; 250 ppm test suspension): 100%
2-[[4-[5-(trifluoromethyl)-1,2,4-oxadiazol-3-yl]phenyl]methyl]-1H-isoindole-1,3(2H)-dione [Compound 90]	–	–	–	–	Test A disease control rating (Phakopsora pachyrhizi; 260 ppm test suspension): 100%; Test B disease control rating (Zymoseptoria tritici; 260 ppm test suspension): 100%; Test C disease control rating ([1]; 260 ppm test suspension): 100%
4,5-dihydro-2-[[4-[5-(trifluoromethyl)-1,2,4-oxadiazol-3-yl]phenyl]methyl]-4-oxazolecarboxamide [Compound 75]	98%	–	–	–	Test A disease control rating (Phakopsora pachyrhizi; 250 ppm test suspension): 100%; Test C disease control rating ([1]; 250 ppm test suspension): 100%
4,5-dihydro-N,N-dimethyl-2-[[4-[5-(trifluoromethyl)-1,2,4-oxadiazol-3-yl]phenyl]methyl]-4-oxazolecarboxamide [Compound 178]	–	–	–	–	Test A disease control rating (Phakopsora pachyrhizi; 260 ppm test suspension): 100%; Test B disease control rating (Zymoseptoria tritici; 260 ppm test suspension): 93%; Test C disease control rating ([1]; 260 ppm test suspension): 100%
CCOC(=O)c1cnn(C(C)c2ccc(-c3noc(C(F)(F)F)n3)s2)c1 (racemic) [Compound 192]	99* %	–	–	–	Test A disease control rating (Phakopsora pachyrhizi; 10 ppm test suspension): 100%; Test C disease control rating ([1]; 10 ppm test suspension): 100%
Cc1ccccc1C(O)c1ccc(-c2noc(C(F)(F)F)n2)cc1 (racemic) [Compound 497]	–	100	5* %	0	–
CN(C)C(=O)C1=NOC(C)(Cn2cc(-c3noc(C(F)(F)F)n3)cn2)C1 (racemic) [compound 306]	10* %	–	–	–	Test A disease control rating (Phakopsora pachyrhizi; 50 ppm test suspension): 0%; Test C disease control rating ([1]; 50 ppm test suspension): 0%
OC(c1ccc(-c2noc(C(F)(F)F)n2)cc1)c1cccc(F)c1 (racemic) [compound 498]	–	100	43* %	0	–
OC(c1ccc(-c2noc(C(F)(F)F)n2)cc1)c1cccc(Cl)c1 (racemic) [compound 499]	–	–	48* %	–	Test A rating (% disease control) (Phakopsora pachyrhizi; Rate 250 ppm test suspension): 100%; Test C rating (% disease control) ([1]; Rate 250 ppm test suspension): 100%
OC(c1ccc(F)cc1)c1ccc(-c2noc(C(F)(F)F)n2)cc1 (racemic) [compound 500]	–	–	5* %	–	Test A rating (% disease control) (Phakopsora pachyrhizi; Rate 250 ppm test suspension): 100%; Test C rating (% disease control) ([1]; Rate 250 ppm test suspension): 100%
COC(=O)c1coc(COc2ccc(-c3noc(C(F)(F)F)n3)cc2)n1 [Compound 403, methyl 2-[[4-[5-(trifluoromethyl)-1,2,4-oxadiazol-3-yl]-phenoxy]methyl]oxazole-4-carboxylate]	–	60	47* %	0	–
CCOC(=O)c1cccc(Cc2ccc(-c3noc(C(F)(F)F)n3)cc2)c1 [Compound 454]	–	100	47* %	0	–
COC(=O)c1csc(Cc2ccc(-c3noc(C(F)(F)F)n3)cc2)c1 [Compound 455]	–	100	66* %	0	–
COC(=O)c1coc(Cc2ccc(-c3noc(C(F)(F)F)n3)cc2)n1 [Compound 490]	–	100	94* %	74	–
ON=Cc1cnn(Cc2ccc(-c3noc(C(F)(F)F)n3)cc2)c1 [compound 20]	99%	–	–	–	Test A disease control rating (Phakopsora pachyrhizi; 250 ppm test suspension): 100%; Test C disease control rating ([1]; 250 ppm test suspension): 100%
COC(=O)c1cnn(Cc2ccc(-c3noc(C(F)(F)F)n3)cc2)c1 [compound 21]	–	–	–	–	Test A disease control rating (Phakopsora pachyrhizi; 10 ppm test suspension): 100%; Test B disease control rating (Zymoseptoria tritici; 100 ppm test suspension (double asterisk **)): 97** %; Test C disease control rating ([1]; 10 ppm test suspension): 100%
